We go through 1 compound from patent US8558004B2, “Reagents and kits for detection of influenza virus and the like” (priority 2007, dated 2013).

SMILES strings stand for the structures.

The test system of this test is influenza virus (A/WS/33). As to conditions: FIG. 6.

Description: The protocol described here is a two-step assay, i.e., the neuraminidase reaction and firefly luciferase reaction are carried out sequentially in two steps. Approximately 1 μg of conjugate was incubated at 37° C. for 15 minutes with 0, 0.5, 5, 50, 500 or 5,000 TCID50 units of influenza virus (A/WS/33) in a 25 μL reaction solution (32.5 mM MES, pH 6.5, 4 mM CaCl2, 0.65% Triton X-100). 12.5 μL of the reaction solution was mixed with 100 μL of luciferase reaction solution (20 nM recombinant firefly luciferase, 4 mM ATP, 13.4 mM MgSO4, 100 mM Trizma, pH 7.9, 4% mannitol, and 1% sucrose) and measured for light signal using a luminometer (Sirius purchased from Berthold). Total light output was collected by integrating RLU over a period of 30 seconds.

Turning to `CC(=O)NC1C(O)CC(Oc2ccc3nc(C4=NC(C(=O)O)CS4)sc3c2)(C(=O)O)OC1C(O)C(O)CO` (centres unmarked) [N-acetylneuraminic acid-firefly luciferin conjugate], under “approx. 1 μg conjugate, 37° C., 15 minutes, pH 6.5, RLU integrated over 30 seconds”, the “influenza virus input resulting in significantly more signal in comparison with the negative control” value stood at 50 TCID50 units. Besides, where the note is “over the entire range tested (0.5 to 5,000 TCID50 units)”, the “response of the signal to virus input” value is “linear response”.
